Assay results reported in patent US10344037B2, “Use of the FL-one hundred eighteen core chemical structure platform to generate FL-one hundred eighteen derivatives for treatment of human disease” (priority 2014, dated 2019).

Assays:
[1] = system: DU145 prostate cancer cells; assay: Cell growth inhibition, cell counting after 72 h; type: cell-based, human
Excerpt: Each dot is the mean±SD derived from 3 independent assays.
Irinotecan and topotecan are the only two analogs derived from direct modification of camptothecin (CPT) that are approved by the FDA for cancer treatment in clinical practice. […] In this regard, we obtain one DU145 parental prostate cancer cell line and two DU145-derived sub-lines with Top1 mutations (DU145-RC0.1, DU145-RC1).

[2] = Pharmacokinetics after IV injection in tumor-bearing SCID mice; type: in vivo
Procedure: Then, blood and tumor tissues were collected at 10 min, 1 h, 4 h, 12 h, 24, and 48 h. Three SCID mice at each time point were used. Standard deviation (SD) was analyzed using Excel software.
A 800 μl aliquot of ice cold acidified methanol is added to 200 μl plasma and vortexed for 15 sec. […] A 800 μl aliquot of ice cold acidified methanol is added to 200 μl homogenized tissue and then vortexed for 1 min. The samples are then centrifuged at 13,000 rpm for 5 min. and the supernatant is transferred to a clean 13×100 mm glass tube. Samples are dried under vacuum and stored at −20° C. until analysis. Dried samples were then reconstituted in 200 μl of mobile phase (80% 3% TEA and 20% acetonitrile pH 5.5) and 15 μl is injected. Analysis is carried out using an Acquity UPLC system with Fluorescence detection interfaced with Empower software. Separation is carried out on a Acquity BEH Shield RP18 1.7 μm, 2.1 mm×100 mm column (Waters). […] CPT-11 is used as the internal standard (IS); a 10 μl aliquot of a 1.3 μg/ml solution is added to each 200 μl sample. The fluorescence detector is set at the following Excitation (Ex) and Emissions (Em) wavelengths: Ex 370 nm Em 510 nm. […] To ensure quality assurance, quality control samples are prepared in plasma at 25 and 250 ng/ml aliquoted and stored at −20° C. The QC's are injected in duplicate at the beginning and end of the assay. […] Validation consists of running twelve standard curves over the course of 5 days. QC samples are analyzed with each curve.

HCT116-NS6 cells = assay: cells; type: cell-based, human
Procedure: (§1) Cancer cell viability and growth are determined by MTT assay. […] MTT is used as a colorimetric substrate for measuring cell viability and growth. When cell growth is inhibited, there is an alteration of cellular redox activity, and thus rendering cells unable to reduce the MTT dye. Cells are seeded in 96 well plates overnight and then treated with or without a compound/drug in the presence or absence of an protein molecule inhibitor (e.g. ABCG2 inhibitor ko143) for 48-72 hours, MTT is added to a final concentration 0.5 mg/ml. Cells are continuously incubated in a 5% CO2 incubator at 37° C. for 4 h with MTT and then lysed with a cell lysis buffer (20% SDS, 50% N,N-dimethylformamide, pH 4.7), 100 μl per well, for 4 h in the incubator. Subsequently, cell absorbance in each well is measured at 570 nm with an Ultra Microplate Reader (Bio-Tek Instruments). Results are reported as the mean±SD from 3-5 independent assays at each point. […] After 72 hours, media is removed and cells are harvested using 0.5 ml of 0.25% Trypsin-EDTA. Cells are counted and viability is analyzed on a Vi-CELL XR Cell Viability Analyzer (Beckman Coulter).

HCT116-A2 cells = assay: cells; type: cell-based, human
Procedure: as §1

HCT116-G7 cells = assay: cells; type: cell-based, human
Procedure: as §1

survivin promoter = assay: Survivin promoter-luciferase activity assay; type: cell-based, human
Procedure: Cancer cells are seeded in 48-well plates at about 50% confluent overnight in complete cell culture medium. Cells are either stably transfected with the pLuc-4080 survivin promoter-luciferase construct or transiently transfected with relevant luciferase reporter vectors. For transient transfection, 245 ng of targeting luciferase reporter construct plus 5 ng of internal control vector, pRK-tk in 30 μl serum-free DMEM, is mixed in a 1.5 ml tube containing 30 μl serum-free DMEM containing 0.4 μl Lipofectamine™ 2000. After incubation at room temperature for 20-25 minutes, the DNA/Lipofectamine complex is added to each well of 48-well plates, which already contain 300 μl corresponding complete growth medium in each well. […] Cells are further incubated for an additional 24-48 hours in a normoxia and/or hypoxia condition, followed by processing luciferase assays. For luciferase assay, a Dual-Luciferase Reporter Assay System (Promega) is used. Cells in 48-well plates are washed with PBS and lysed with 80 μl 1× passive lysis buffer on a shaker for up to 1 hour at 4° C. Twenty μl cell lysate per well is used to measure the Firefly and Renilla luciferase activity in triplicates in a Luminometer by subsequently adding 20 μl luciferase assay reagent and 20 μl Stop-Glo reagent. […]

HIF-1α = assay: Western blot for HIF-1α expression under hypoxia in FaDu cells; type: cell-based, human; settings: 36 h
p53 = assay: Western blot for p53 expression in colon cancer cells with wild type p53; type: cell-based, human
Procedure: Actin is an internal control for total protein loading.
After the lysates are cleared by centrifugation at 15,000 g for 20 minutes at 4° C., the total protein is determined using Bio-Rad protein assay solution. Up to 50 μg of total protein is denatured in 2×SDS sample loading buffer for 5 minutes at 95° C., separated on 10-15% SDS-PAGE gels, and electrotransferred to the Pure Nitrocellulose Membrane (Bio-Rad, Hercules, Calif.) using semi-dry electrophoretic transfer. After the nonspecific binding sites on the membranes are blocked with 5% skim milk in TBS-T (20 mM Tris-HCl pH 7.5, 0.137 M NaCl, and 0.01% Tween 20) for 3 hours at room temperature with constant shaking, the membranes are incubated in TBS-T containing the relevant primary antibody (1: 500-1000) and 5% BSA overnight at 4° C. After washing with TB S-T three times, the membrane is incubated in 5% skim milk in TBS-T buffer containing the appropriate secondary anti-IgG antibody (1:5000) at room temperature for 1 h with constant shaking. The protein of interest is detected using Western Lightning®-ECL (Perkin Elmer, Waltham, Mass.) and visualized by exposure for various times (5-60 seconds). […]

ABCG2 in HCT116-A2 cells = assay: Growth inhibition after ABCG2 shRNA silencing; type: cell-based, human; settings: 72 hours
Procedure: Actin is internal control. B and C. […] Cells at sub-confluence are infected with lentiviral particles containing nonsense shRNA (ns), or AGCG2-specific shRNA (sh1, sh2) to silence ABCG2 expression in the cells. […] Viability for each dose was determined using a ViCELL XR cell viability analyzer and normalized to that of DMSO control. Error bars=SEM, n=3 independent experiments. Data are plotted graphically and EC50 values are calculated using GraphPad Prism 6.0.

[3] = system: SW620 and HCT-8 colon cancer cells; assay: MTT assay with ABC transporter inhibitors; type: cell-based, human; settings: sildenafil 50 μM, 3 days
Procedure: Subconfluent SW620, HCT-8, and HCT-116 cells were lysed and analyzed for the expression of MDR1 and ABCG2 using western blots (WB). Actin is the internal control. […] Cell growth/viability was then analyzed by MTT assays. Each time point in the individual curve is the mean±SD from 3 to 5 independent assays. […] Drugs were then washed out and cells were allowed to grow in new medium without drugs for 2 weeks. Cell colonies were stained with crystal violet solution; images were digitally taken. Triplicate results are shown.

HCT-8 colon cancer cells = assay: Cell growth inhibition, 72 hours; type: cell-based, human; settings: HCT-8 cells
Procedure: Cell growth is then measured and the data are plotted as percentage of growth inhibition (no drug treatment was set at 0%). […] C. […] Representative cancer cell images were taken with a digital camera under phase-contrast microscope.

[4] = system: FaDu head-&-neck and SW620 CRC tumor xenografts; assay: Xenografts with acquired irinotecan or topotecan resistance; type: in vivo, SCID mice; settings: FL118 1.5 or 1 mg/kg IP q2d×5
Procedure: Individual tumor curves derived from individual mice are shown. A. Mice with FaDu head-&-neck tumor xenografts were first treated with irinotecan at its maximum tolerated dose (MTD, 100 mg/kg, IP) weekly for 4-5 times (black arrow). […] B. Mice with FaDu tumor xenografts were first treated with topotecan at its MTD (4 mg/kg, IP) via daily×5 schedules for 4 cycles (each black arrow is one cycle). […] C. Mice with SW620 CRC xenografts were first treated with irinotecan at its MTD (IP, weekly×4, black arrow). […] D. Mice with SW620 xenograft tumors were first treated with topotecan at its MTD.

[5] = system: colorectal cancer PDX (11124, 14528); assay: Colorectal cancer patient-derived xenografts (PDX); design: species or system SCID mice; settings: mouse, in vivo
Excerpt: Individual PDX were subcutaneously inoculated into SCID mice. […] Individual PDX tumor curves derived from individual mice are shown. […] Two examples of colorectal cancer PDX (11124, 14528) are shown.

[6] = system: pancreatic cancer PDX tumors (12872, 12914, 14244, 17624, 19015); assay: Pancreatic cancer patient-derived xenografts (PDX); design: species or system SCID mice; settings: mouse, in vivo
[7] = system: IAP and Bcl-2 family genes; assay: Affymetrix Human Gene 1.0 ST Array of FL118-treated PC3 cells; settings: DNA microarray
[8] = IC50 of topotecan divided by IC50 of the drug

With `CC[C@@]1(O)C(=O)OCc2c1cc1n(c2=O)Cc2cc3cc4c(cc3nc2-1)OCO4` [FL118] the IC50 ([1]; DU-145) was 4560 pM, the “more effective than CPT, SN-38 and topotecan to inhibit cancer cell growth” value ([1]; parental Du145 cell line) was 10-40 fold and the T1/2 ([2]; FaDu tumor, iv 1.5 mg/kg) was 411.1 min. The Tmax ([2]; FaDu tumor, iv 1.5 mg/kg) was 10 min, the Vz ([2]; FaDu tumor, iv 1.5 mg/kg) was 33052 g/kg and the T1/2 ([2]; SW620 tumor, iv 1.5 mg/kg) was 765 min. The Tmax ([2]; SW620 tumor, iv 1.5 mg/kg) was 10 min, the Vz ([2]; SW620 tumor, iv 1.5 mg/kg) was 30742 g/kg and the “time FL118 is maintained in tumor” value ([2]; intravenous injection) was “over 48 hours”. For the same compound, the “time to clearance from blood” value ([2]; intravenous injection) was no more than 12 h, the Cl ([2]; mouse plasma, iv 1.5 mg/kg) was 238.12 mL/min/kg and the Cmax ([2]; mouse plasma, iv 1.5 mg/kg) was 43 ng/mL. It also gave a T1/2 ([2]; mouse plasma, iv 1.5 mg/kg) of 107.3 min, a Tmax ([2]; mouse plasma, iv 1.5 mg/kg) of 10 min and a Vz ([2]; mouse plasma, iv 1.5 mg/kg) of 36.849 L/kg. For the same compound, the IC50 (HCT116-NS6 cells) was 138 pM, the RP (HCT116-NS6 cells; [8]) was 40.87 and the IC50 (HCT116-A2 cells) was 163 pM. It also gave an RP (HCT116-A2 cells; [8]) of 666.5, an IC50 (HCT116-G7 cells) of 1190 pM and an RP (HCT116-G7 cells; [8]) of 16.22. For the same compound, the “concentration that can effectively inhibit survivin promoter activity” value (survivin promoter) was 1 to 10 nM, the “hypoxia-induced survivin promoter activity” value (survivin promoter; HCT116 cells with full-length survivin promoter-luciferase, 24 h, hypoxia) was “abrogated by FL118 treatment” and the “hypoxia-induced HIF-1α expression” value (HIF-1α) was “abrogated by FL118 treatment”. For the same compound, the p53 protein expression (p53) was “strong and rapid induction of p53 expression”, the “effect of silencing of ABCG2 on cell growth inhibition” value (ABCG2 in HCT116-A2 cells) was “shows no effect to FL118” and the “sensitization by multi-efflux pump inhibitor sildenafil” value [3] was “sildenafil does not sensitize FL118”. The “more sensitive to colon cancer cells than topotecan” value (HCT-8 colon cancer cells) was “at least 25 time”, the “effect on tumors with acquired irinotecan and topotecan resistance” value [4] was “effectively regressed” and the “antitumor activity on the same PDX on different mice” value [5] was “very similar antitumor activity to the same tumor on different SCID mice”. The “efficacy on different PDX tumors of the same type” value [6] was “much different efficacy to different tumors of the same type”, the “expression of Bcl-2 family antiapoptotic genes” value [7] was “slightly decreases Mcl-1 and Bcl-XL, and shows no effect on Bcl-2, Bcl2A1, Bcl-w, Bcl-B, Bcl2L12, Bcl2L13, Bcl-G and Bcl2L15” and the “expression of IAP family genes” value [7] was “decreases (2 fold cutoff) NAIP, cIAP2, XIAP and Bruce, and shows no effects on cIAP1, Livin and hILP2”. For the same compound, the “expression of proapoptotic proteins” value [7] was “increases proapoptotic proteins Bax, Bad, Bim, Hrk, and Bmf without affecting the expression of Bid, Bik, Bak and Bok”.
